# pEC50: −log10 of the molar value.
# Molecular target: T1, recombinant GPR52 (Homo sapiens, UniProt Q9Y2T5)
# T1 construct: expressed in transfected cells
# Test: HTRF cAMP assay for direct cAMP measurement
# Assay type: cell-based
# Settings: mean EC50; CHO-K1 or HEK293 cells stably expressing recombinant GPR52
# Protocol: HTRF cAMP assays were performed using commercially available assay kits according to the manufacturer's instructions (cAMP Dynamic 2 Assay Kit; #62AM4PEJ, Cisbio Bioassays, Bedford, Mass.). CHO-K1 or HEK293 cells stably expressing recombinant GPR52 were harvested and resuspended in assay buffer (PBS containing 0.5 mM IBMX and 0.1% BSA) at a density of 1.2×10^6 cells per mL. […] Test compounds were solubilized and serially diluted in DMSO using 5-fold dilutions to generate 10-point dose response curves. These serially diluted samples were then further diluted in PBS to achieve a 2× stock. The diluted compounds were transferred to triplicate assay plates (5 μL per well to achieve the 1× final assay concentration). A positive control was included in each assay run. After one-hour incubation at room temperature, 5 μL of cAMP D2 reagent diluted in lysis buffer was added to each well, followed by 5 μL of cryptate reagent. Plates were then incubated at room temperature for one hour prior to reading. Time-resolved fluorescence measurements were collected on an HTRF-capable plate reader (e.g., EnVision® (PerkinElmer, Waltham, Mass.) or PHERAstar (BMG LABTECH, Cary, N.C.)). Counts from the plate reader were fit to the cAMP standard curve included on each plate to determine the amount of cAMP in each test well. Dose-response curves were generated from the cAMP data and analyzed using a nonlinear least squares curve-fitting program to obtain EC50 values.
# T1 sequence (Q9Y2T5 whole entry): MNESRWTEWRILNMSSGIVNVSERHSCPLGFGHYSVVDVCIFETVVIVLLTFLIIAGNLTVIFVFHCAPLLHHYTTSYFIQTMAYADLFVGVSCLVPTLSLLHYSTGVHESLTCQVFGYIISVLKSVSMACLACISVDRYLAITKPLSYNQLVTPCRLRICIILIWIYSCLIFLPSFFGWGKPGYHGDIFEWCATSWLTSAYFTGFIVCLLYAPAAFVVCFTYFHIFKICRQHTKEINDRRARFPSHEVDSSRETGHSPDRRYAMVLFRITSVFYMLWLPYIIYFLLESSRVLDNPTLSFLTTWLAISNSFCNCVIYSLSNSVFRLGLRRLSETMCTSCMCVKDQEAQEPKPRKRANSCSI
row,pEC50,Compound
1,8.01,"O=C(Nc1cnn(CCO)c1)c1cccc2c1CCN2c1cc(Cc2cc(F)c(F)c(F)c2)ccn1 [Compound 118, N-(1-(2-Hydroxyethyl)-1H-pyrazol-4-yl)-1-(4-(3,4,5-trifluorobenzyl)pyridin-2-yl)indoline-4-carboxamide]"
2,7.64,"NC(=O)c1cccc2c1CCN2c1cc(Cc2cccc(OC(F)(F)F)c2)ccn1 [Compound 64, 1-(4-(3-(Trifluoromethoxy)benzyl)pyridin-2-yl)indoline-4-carboxamide]"
3,7.01,"O=C(NCCO)c1cccc2c1CCN2c1cc(Oc2cc(F)cc(C(F)(F)F)c2)ccn1 [Compound 23, 1-(4-(3-Fluoro-5-(trifluoromethyl)phenoxy)pyridin-2-yl)-N-(2-hydroxyethyl)indoline-4-carboxamide]"
4,7.44,"NC(=O)c1cccc2c1CCN2c1cc(Cc2ccc(O)c(F)c2)ccn1 [Compound 97, 1-(4-(3-Fluoro-4-hydroxybenzyl)pyridin-2-yl)indoline-4-carboxamide]"
5,6.51,"COCC(COC)NC(=O)c1cccc2c1CCN2c1cc(Cc2cc(F)c(F)c(F)c2)ccn1 [Compound 131, N-(1,3-Dimethoxypropan-2-yl)-1-(4-(3,4,5-trifluorobenzyl)pyridin-2-yl)indoline-4-carboxamide]"
6,8.17,"CN(C)CC(O)CNC(=O)c1cccc2c1CCN2c1cc(Cc2cc(F)c(F)c(F)c2)ccn1 (stereo not drawn) [Compound 158, N-(3-(Dimethylamino)-2-hydroxypropyl)-1-(4-(3,4,5-trifluorobenzyl)pyridin-2-yl)indoline-4-carboxamide]"
7,7.80,"CC(=O)c1ccc(Cc2ccnc(N3CCc4c(C(N)=O)cccc43)c2)cc1 [Compound 55, 1-(4-(4-Acetylbenzyl)pyridin-2-yl)indoline-4-carboxamide]"
8,6.65,"CNC(=O)c1cc(Cc2ccnc(N3CCc4c(C(N)=O)cccc43)c2)ccc1F [Compound 59, 1-(4-(4-Fluoro-3-(methylcarbamoyl)benzyl)pyridin-2-yl)indoline-4-carboxamide]"
9,6.67,"NC(=O)c1cccc2c1CCN2c1cc(Cc2ccc3c(c2)OCCCO3)ccn1 [Compound 96, 1-(4-((3,4-Dihydro-2H-benzo[b][1,4]dioxepin-7-yl)methyl)pyridin-2-yl)indoline-4-carboxamide]"
10,7.99,"O=C(N[C@H]1CCOC1)c1cccc2c1CCN2c1ccnc(Cc2cccc(C(F)(F)F)c2)c1 [Compound 3, (S)-N-(Tetrahydrofuran-3-yl)-1-(2-(3-(trifluoromethyl)benzyl)pyridin-4-yl)indoline-4-carboxamide]"
11,7.25,"O=C(NCC1(CO)COC1)c1c(F)ccc2c1CCN2c1cc(Cc2cc(F)c(F)c(F)c2)ccn1 [Compound 155, 5-Fluoro-N-((3-(hydroxymethyl)oxetan-3-yl)methyl)-1-(4-(3,4,5-trifluorobenzyl)pyridin-2-yl)indoline-4-carboxamide]"
12,7.89,"O=C(NCCO)c1cccc2c1CCN2c1ccnc(Cc2cc(F)cc(Cl)c2)c1 [Compound 187, 1-(2-(3-Chloro-5-fluorobenzyl)pyridin-4-yl)-N-(2-hydroxyethyl)indoline-4-carboxamide]"
13,8.07,"COc1ccc(Cc2ccnc(N3CCc4c(C(=O)NCCOCCO)cccc43)c2)cc1F [Compound 205, 1-(4-(3-fluoro-4-methoxybenzyl)pyridin-2-yl)-N-(2-(2-hydroxyethoxy)ethyl)indoline-4-carboxamide]"
14,7.91,"O=C(N[C@H]1CCOC1)c1cccc2c1CCN2c1cc(Cc2cccc(C(F)(F)F)c2)ccn1 [Compound 4, (S)-N-(Tetrahydrofuran-3-yl)-1-(4-(3-(trifluoromethyl)benzyl)pyridin-2-yl)indoline-4-carboxamide]"
15,7.43,"O=C(NC[C@H](O)c1cccnc1)c1cccc2c1CCN2c1cc(Cc2cc(F)c(F)c(F)c2)ccn1 [Compound 148, (R)-N-(2-Hydroxy-2-(pyridin-3-yl)ethyl)-1-(4-(3,4,5-trifluorobenzyl)pyridin-2-yl)indoline-4-carboxamide]"
16,7.21,"NC(=O)c1cccc2c1CCN2c1cc(Cc2cnc3ccccc3c2)ccn1 [Compound 111, 1-(4-(Quinolin-3-ylmethyl)pyridin-2-yl)indoline-4-carboxamide]"
17,7.93,"N#Cc1cc(Cc2ccnc(N3CCc4c(C(N)=O)cccc43)c2)ccc1F [Compound 60, 1-(4-(3-Cyano-4-fluorobenzyl)pyridin-2-yl)indoline-4-carboxamide]"
18,8.13,"CNC(=O)c1cccc2c1CCN2c1cncc(Cc2cccc(C(F)(F)F)c2)c1 [Compound 9, N-Methyl-1-(5-(3-(trifluoromethyl)benzyl)pyridin-3-yl)indoline-4-carboxamide]"

row,pEC50,Compound
1,7.21,"NC(=O)c1cccc2c1CCN2c1cc(Cc2cnc(F)c(F)c2)ccn1 [Compound 49, 1-(4-((5,6-Difluoropyridin-3-yl)methyl)pyridin-2-yl)indoline-4-carboxamide]"
2,7.14,"O=C(NC[C@H](O)CO)c1cccc2c1CCN2c1cc(Cc2cc(F)cc(C(F)(F)F)c2)ccn1 [Compound 31, (S)-N-(2,3-Dihydroxypropyl)-1-(4-(3-fluoro-5-(trifluoromethyl)benzyl)pyridin-2-yl)indoline-4-carboxamide]"
3,7.50,"COC[C@@H](O)CNC(=O)c1cccc2c1CCN2c1cc(Cc2cc(F)cc(Cl)c2)ccn1 [Compound 168, (S)-1-(4-(3-Chloro-5-fluorobenzyl)pyridin-2-yl)-N-(2-hydroxy-3-methoxypropyl)indoline-4-carboxamide]"
4,7.76,"Cc1cc(Cc2ccnc(N3CCc4c(C(N)=O)cccc43)c2)cnc1F [Compound 50, 1-(4-((6-Fluoro-5-methylpyridin-3-yl)methyl)pyridin-2-yl)indoline-4-carboxamide]"
5,7.41,"NC(=O)c1cccc2c1CCN2c1cc(Cc2cc3ccccc3o2)ccn1 [Compound 119, 1-(4-(Benzofuran-2-ylmethyl)pyridin-2-yl)indoline-4-carboxamide]"
6,7.96,"COc1ccc(Cc2ccnc(N3CCc4c3ccc(F)c4C(=O)NCCNC(C)=O)c2)cc1F [Compound 164, N-(2-Acetamidoethyl)-5-fluoro-1-(4-(3-fluoro-4-methoxybenzyl)pyridin-2-yl)indoline-4-carboxamide]"
7,8.97,"COc1ccc(Cc2ccnc(N3CCc4c(C(=O)NC5CCN(CCO)CC5)cccc43)c2)cc1F [Compound 91, 1-(4-(3-Fluoro-4-methoxybenzyl)pyridin-2-yl)-N-(1-(2-hydroxyethyl)piperidin-4-yl)indoline-4-carboxamide]"
8,7.67,"CC(=O)Oc1cccc(Cc2ccnc(N3CCc4c(C(N)=O)cccc43)c2)c1 [Compound 102, 3-((2-(4-Carbamoylindolin-1-yl)pyridin-4-yl)methyl)phenyl acetate]"
9,6.85,"O=C(N[C@@H]1CCOC1=O)c1cccc2c1CCN2c1cc(Cc2cc(F)c(F)c(F)c2)ccn1 [Compound 135, (R)-N-(2-Oxotetrahydrofuran-3-yl)-1-(4-(3,4,5-trifluorobenzyl)pyridin-2-yl)indoline-4-carboxamide]"
10,7.09,"Cc1cc(Cc2cccc(C(F)(F)F)c2)cc(N2CCc3c(C(N)=O)cccc32)n1 [Compound 17, 1-(6-Methyl-4-(3-(trifluoromethyl)benzyl)pyridin-2-yl)indoline-4-carboxamide]"
11,7.44,"N#CCCNC(=O)c1cccc2c1CCN2c1cc(Cc2cccc(C(F)(F)F)c2)ccn1 [Compound 20, N-(2-Cyanoethyl)-1-(4-(3-(trifluoromethyl)benzyl)pyridin-2-yl)indoline-4-carboxamide]"
12,7.63,"Cn1cc(NC(=O)c2cccc3c2CCN3c2cc(Cc3cc(F)c(F)c(F)c3)ccn2)cn1 [Compound 117, N-(1-Methyl-1H-pyrazol-4-yl)-1-(4-(3,4,5-trifluorobenzyl)pyridin-2-yl)indoline-4-carboxamide]"
13,7.97,"CC(=O)c1cc(Cc2ccnc(N3CCc4c(C(=O)NCCO)cccc43)c2)ccc1F [Compound 77, 1-(4-(3-Acetyl-4-fluorobenzyl)pyridin-2-yl)-N-(2-hydroxyethyl)indoline-4-carboxamide]"
14,6.22,"O=C(NCCO)c1cccc2c1CCN2c1cncc(Cc2cccc(C(F)(F)F)c2)n1 [Compound 38, N-(2-Hydroxyethyl)-1-(6-(3-(trifluoromethyl)benzyl)pyrazin-2-yl)indoline-4-carboxamide]"
15,7.66,"COC[C@@H](O)CNC(=O)c1cccc2c1CCN2c1ccnc(Cc2cc(F)c(F)c(F)c2)c1 [Compound 189, (S)-N-(2-Hydroxy-3-methoxypropyl)-1-(2-(3,4,5-trifluorobenzyl)pyridin-4-yl)indoline-4-carboxamide]"
16,8.28,"O=C(N[C@H]1CCOC1)c1cccc2c1CCN2c1cncc(Cc2cccc(C(F)(F)F)c2)c1 [Compound 7, (S)-N-(Tetrahydrofuran-3-yl)-1-(5-(3-(trifluoromethyl)benzyl)pyridin-3-yl)indoline-4-carboxamide]"
17,7.74,CNC(=O)CCNC(=O)c1cccc2c1CCN2c1cc(Cc2cc(F)c(F)c(F)c2)ccn1 [Compound 172]
18,7.44,"NC(=O)c1cccc2c1CCN2c1cc(Cc2ccc(F)c(CO)c2)ccn1 [Compound 63, 1-(4-(4-Fluoro-3-(hydroxymethyl)benzyl)pyridin-2-yl)indoline-4-carboxamide]"
